Source: ChEMBL document CHEMBL1151540, “1-Naphthylmethylphosphonic acid derivatives as osteoclastic acid phosphatase inhibitors” (Bioorg Med Chem Lett, 1995)

Experiments:
Mus musculus [1] = species on record: Mus musculus; test: Tested for percentage inhibition of PTH stimulated bone resorption in neonatal mouse calvaria placed in culture, at 10 uM concentration; format: functional
Mus musculus [2] = species on record: Mus musculus; test: Compound was tested for thymidine incorporation at 10 uM concentration; format: functional
[3] = biological target: Tartrate-resistant acid phosphatase type 5 (Homo sapiens) (UniProt P13686); test: Tested for inhibition of human Osteoclastic acid phosphatase (OAP), purified from the spleen of a patient with hairy cell leukemia at 100 uM
Chain of Tartrate-resistant acid phosphatase type 5 (Homo sapiens) (P13686 whole entry, looked up): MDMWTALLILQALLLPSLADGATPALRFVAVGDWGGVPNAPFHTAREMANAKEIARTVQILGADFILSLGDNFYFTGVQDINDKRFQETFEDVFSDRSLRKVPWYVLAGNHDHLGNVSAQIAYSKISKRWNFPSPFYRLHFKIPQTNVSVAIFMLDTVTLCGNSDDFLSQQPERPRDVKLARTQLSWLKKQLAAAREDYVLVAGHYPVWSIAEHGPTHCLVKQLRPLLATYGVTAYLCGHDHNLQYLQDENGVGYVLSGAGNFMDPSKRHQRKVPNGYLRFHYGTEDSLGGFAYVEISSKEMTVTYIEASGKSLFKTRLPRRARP

Mus musculus [4] = species on record: Mus musculus; test: Compound was evaluated for thymidine incorporation at 1 uM concentration using [H3 thymidine] as radioligand; format: functional
Mus musculus [5] = species on record: Mus musculus; test: Tested for percentage inhibition of PTH stimulated bone resorption in neonatal mouse calvaria placed in culture, at 1 uM concentration; format: functional
Mus musculus [6] = species on record: Mus musculus; test: Tested for percentage inhibition of PTH stimulated bone resorption in neonatal mouse calvaria placed in culture, at 100 uM concentration; format: functional
Mus musculus [7] = species on record: Mus musculus; test: Compound was evaluated for thymidine incorporation at 100 uM concentration using [H3 thymidine] as radioligand; format: functional
Mus musculus [8] = species on record: Mus musculus; test: Compound was evaluated for thymidine incorporation at 10 uM concentration using [H3 thymidine] as radioligand; format: functional
Mus musculus [9] = species on record: Mus musculus; test: Compound was tested for thymidine incorporation at 500 uM concentration using [H3 thymidine] as radioligand; format: functional
Mus musculus [10] = species on record: Mus musculus; test: Compound was tested for the percentage inhibition of PTH stimulated bone resorption in neonatal mouse calvaria placed in culture, at 500 uM concentration; format: functional
Mus musculus [11] = species on record: Mus musculus; test: Compound was tested for the percentage inhibition of PTH stimulated bone resorption in neonatal mouse calvaria placed in culture, at 100 uM concentration; format: functional

Row | Molecule | inhibition [3] | other results
1 | O=P(O)(O)C(Cl)(Cl)P(=O)(O)O [CLODRONIC ACID] |  | Inhibition (Mus musculus [1]): 95.6%; Control (Mus musculus [2]): 104%
2 | O=P(O)(O)C(CC1CCCCC1)c1cccc2ccccc12 (centres undefined) | 73% | 
3 | Cc1ccc(CC(c2cccc3ccccc23)P(=O)(O)O)cc1 (centres undefined) | 75% | 
4 | O=P(O)(O)C(Cc1ccccc1)c1ccccc1 (centres undefined) | 15% | 
5 | Cc1ccc2ccccc2c1C(CC1CCCCC1)P(=O)(O)O (centres undefined) | 90% | 
6 | O=P(O)(O)C(O)c1cccc2ccccc12 (centres undefined) | 10% | 
7 | O=C(c1ccccc1)C(C(=O)c1ccccc1)(c1cccc2ccccc12)P(=O)(O)O | 96% | 
8 | ORTHOVANADATE |  | inhibition (Mus musculus [1]): 72.7%; Control (Mus musculus [4]): 127%; inhibition (Mus musculus [5]): 31.3%; inhibition (Mus musculus [6]): 130%; Control (Mus musculus [7]): 0.4%; Control (Mus musculus [8]): 94%
9 | O=P(O)(O)Cc1ccc2ccccc2c1 | 4% | 
10 | O=P(O)(O)C(Cc1ccccc1)c1ccc2ccccc2c1 (centres undefined) | 19% | 
11 | O=P(O)(O)C(Cc1ccc(-c2ccccc2)cc1)c1cccc2ccccc12 (centres undefined) | 100% | 
12 | Cc1ccc2ccccc2c1CP(=O)(O)O | 20% | 
13 | COc1ccc(CC(c2cccc3ccccc23)P(=O)(O)O)cc1 (centres undefined) | 73% | 
14 | O=P(O)(O)Cc1cccc2ccccc12 | 64% | 
15 | O=[N+]([O-])c1ccc(CC(c2cccc3ccccc23)P(=O)(O)O)cc1 (centres undefined) | 80% | 
16 | O=P(O)(O)C(Cc1ccccc1)c1cccc2ccccc12 (centres undefined) | 92% | 
17 | O=P(O)(O)C(Cc1ccc(Cl)cc1)c1cccc2ccccc12 (centres undefined) | 94% | Control (Mus musculus [9]): 76%; Inhibition (Mus musculus [10]): 101.8%; Inhibition (Mus musculus [11]): 31.9%
18 | O=C(c1ccc2ccccc2c1)C(c1cccc2ccccc12)P(=O)(O)O (centres undefined) | 95% | 
19 | O=P(O)(O)C(Cc1ccc(Cl)cc1)(Cc1ccc(Cl)cc1)c1cccc2ccccc12 | 87% | 
20 | O=P(O)(O)Cc1ccccc1 | 0% | 
